Patent publication US20080200467A1, “SOLUBLE EPOXIDE HYDROLASE INHIBITORS” (Arete Therapeutics, Inc., priority 2006, published 2008)

system: soluble epoxide hydrolase (sEH); assay: Fluorescent Assay for Mouse and Human Soluble Epoxide Hydrolase (CMNPC substrate); type: biochemical; details: Concentration 50 nM
Description: Fluorescent Assay for Mouse and Human Soluble Epoxide Hydrolase Recombinant mouse sEH (MsEH) and human sEH (HsEH) were produced in a baculovirus expression system as previously reported. Grant et al., J. Biol. Chem., 268:17628-17633 (1993); Beetham et al., Arch. Biochem. Biophys., 305:197-201 (1993). The expressed proteins were purified from cell lysate by affinity chromatography. Wixtrom et al., Anal. Biochem., 169:71-80 (1988). Protein concentration was quantified using the Pierce BCA assay using bovine serum albumin as the calibrating standard. The preparations were at least 97% pure as judged by SDS-PAGE and scanning densitometry. They contained no detectable esterase or glutathione transferase activity which can interfere with the assay. The assay was also evaluated with similar results in crude cell lysates or homogenate of tissues. The IC50s for each inhibitor were according to the following procedure: [drawing 218] […] Jones P. D. et. al.; Analytical Biochemistry 2005; 343: pp. 66-75) Bis/Tris HCl 25 mM pH 7.0 containing 0.1 mg/mL of BSA (buffer […] at 0.25 mM in DMSO. Mother solution of enzyme in buffer A (Mouse sEH at 6 μg/mL and Human sEH at 5 μg/mL). Inhibitor dissolved in DMSO at the appropriate concentration. In a black 96 well plate, fill all the wells with 150 μL of buffer A. Add 2 μL of DMSO in well A2 and A3, and then add 2 μL of inhibitor solution in A1 and A4 through A12. Add 150 μL of buffer A in row A, then mix several time and transfer 150 μL to row B. Repeat this operation up to row H. The 150 μL removed from row H is discarded. Add 20 μL of buffer A in column 1 and 2, then add 20 μL of enzyme solution to column 3 to 12. Incubate the plate for 5 minutes in the plate reader at 30° C. During incubation prepare the working solution of substrate by mixing 3.68 mL of buffer A (4×0.920 mL) with 266 μL (2×133 μL) of substrate solution). At t=0, add 30 μL of working substrate solution with multi-channel pipette labeled “Briggs 303” and start the reading ([S]final: 5 μM). Read with ex: 330 nm (20 nm) and em: 465 nm (20 nm) every 30 second for 10 minutes. The velocities are used to analyze and calculate the IC50s. Tables 4-6 show the activity of compounds when tested with the assay at 50, 500, 5000, 50000, and 500000 nM.

% Inhibition | Compound
95% | O=C(NC1CCN(S(=O)(=O)c2ccc(Cl)cc2)CC1)C(O)C12CC3CC(CC(C3)C1)C2 (centres unmarked) [Compound 149, N-(1-(4-Chlorophenylsulfonyl)piperidin-4-yl)-2-adamantan-1-yl-2-hydroxyacetamide]
70% | O=C(NCCc1ccc(OCc2ccccc2)cc1)C(O)CCC12CC3CC(CC(C3)C1)C2 (centres unmarked) [Compound 129, 4-Adamantan-1-yl-N-[2-(4-benzyloxy-phenyl)-ethyl]-2-hydroxy-butyramide]

same assay, conditions: Concentration 500 nM

% Inhibition | Compound
78% | COC(=O)CCCCCCCCCCCNC(=O)C(O)CCc1ccc(C(F)(F)F)cc1 (centres unmarked) [Compound 162, Methyl 12-(2-hydroxy-4-(4-(trifluoromethyl)phenyl)butanamido)dodecanoate]
88% | Cc1ccc(S(=O)(=O)N2CCC(CNC(=O)C(O)CC34CC5CC(CC(C5)C3)C4)CC2)cc1 (centres unmarked) [Compound 122, 3-Adamantan-1-yl-2-hydroxy-N-[1-(toluene-4-sulfonyl)-piperidin-4-ylmethyl]-propionamide]
81% | COC(=O)CCCCCCCCCCCNC(=O)C(O)CC12CC3CC(CC(C3)C1)C2 (centres unmarked) [Compound 160, Methyl 12-(3-adamantan-1-yl-2-hydroxypropanamido)dodecanoate]
89% | O=C(Nc1cccc(OCc2ccccc2)c1)C(O)CC12CC3CC(CC(C3)C1)C2 (centres unmarked) [Compound 115, 3-Adamantan-1-yl-N-(3-benzyloxy-phenyl)-2-hydroxy-propionamide]
89% | Cc1ccc(S(=O)(=O)N2CCC(NC(=O)C(O)CC34CC5CC(CC(C5)C3)C4)CC2)cc1 (centres unmarked) [Compound 128, 3-Adamantan-1-yl-2-hydroxy-N-[1-(toluene-4-sulfonyl)-piperidin-4-yl]-propionamide]

same assay, conditions: Concentration 5000 nM

% Inhibition | Compound
81% | O=C(O)c1ccc(Oc2ccc(CCNC(=O)C(O)CCC34CC5CC(CC(C5)C3)C4)cc2)cc1 (centres unmarked) [Compound 154, 4-(4-(2-(4-Adamantan-1-yl-2-hydroxybutanamido)ethyl)phenoxy)benzoic acid]
75% | O=C(Cc1ccc(OCc2ccccc2)cc1)C(=O)NC12CC3CC(CC(C3)C1)C2 [Compound 7, N-Adamantan-1-yl-3-(4-benzyloxy-phenyl)-2-oxo-propionamide]
93% | O=C(NCCc1ccc(OCc2ccccc2)cc1)C(O)CC12CC3CC(CC(C3)C1)C2 (centres unmarked) [Compound 147, N-(4-(Benzyloxy)phenethyl)-3-adamantan-1-yl-2-hydroxypropanamide]
64% | O=C(CC12CC3CC(CC(C3)C1)C2)C(=O)Nc1ccc(OCc2ccccc2)cc1 [Compound 17, 3-Adamantan-1-yl-N-(4-benzyloxy-phenyl)-2-oxo-propionamide]
79% | COc1ccc(C(O)C(=O)NCC23CC4CC(CC(C4)C2)C3)cc1 (centres unmarked) [Compound 120, N-Adamantan-1-ylmethyl-2-hydroxy-2-(4-methoxy-phenyl)-acetamide]
83% | O=C(NCc1ccc(OCc2ccccc2)cc1)C(O)C12CC3CC(CC(C3)C1)C2 (centres unmarked) [Compound 134, N-(4-(Benzyloxy)benzyl)-2-adamantan-1-yl-2-hydroxyacetamide]
87% | O=C(CC12CC3CC(CC(C3)C1)C2)C(=O)NCCc1ccc(OCc2ccccc2)cc1 [Compound 24]
95% | O=C(Nc1ccc(OCc2ccccc2)cc1)C(O)C12CC3CC(CC(C3)C1)C2 (centres unmarked) [Compound 118, 2-Adamantan-1-yl-N-(4-benzyloxy-phenyl)-2-hydroxy-acetamide]
91% | O=C(NCCc1ccc(OCc2ccccc2)cc1)C(O)CCC1CCCCC1 (centres unmarked) [Compound 141, N-(4-(Benzyloxy)phenethyl)-4-cyclohexyl-2-hydroxybutanamide]
90% | O=C(NCCc1ccc(Oc2ccccc2)cc1)C(O)CCC12CC3CC(CC(C3)C1)C2 (centres unmarked) [Compound 151, 4-Adamantan-1-yl-2-hydroxy-N-(4-phenoxyphenethyl)butanamide]
78% | COc1ccc(C(=O)C(=O)NCC23CC4CC(CC(C4)C2)C3)cc1 [Compound 22]
87% | O=C(NCCc1ccc(OCc2ccccc2)cc1)C(O)C12CC3CC(CC(C3)C1)C2 (centres unmarked) [Compound 150, N-(4-(Benzyloxy)phenethyl)-2-adamantyl-2-hydroxyacetamide]
86% | O=C(CC12CC3CC(CC(C3)C1)C2)C(=O)Nc1cccc(OCc2ccccc2)c1 [Compound 15, 3-Adamantan-1-yl-N-(3-benzyloxy-phenyl)-2-oxo-propionamide]

More lines, now with the values behind:

Compound | % Inhibition
O=C(NCCc1ccc(OCc2ccccc2)cc1)C(O)CCc1ccc(C(F)(F)F)cc1 (centres unmarked) [Compound 139, N-(4-(Benzyloxy)phenethyl)-2-hydroxy-4-(4-(trifluoromethyl)phenyl)butanamide] | 70%
O=C(Nc1cccc(OCc2ccccc2)c1)C(O)CCc1ccc(C(F)(F)F)cc1 (centres unmarked) [Compound 131] | 98%
Cc1ccc(S(=O)(=O)N2CCC(NC(=O)C(=O)C3CCCCC3)CC2)cc1 [Compound 10, 2-Cyclohexyl-2-oxo-N-[1-(toluene-4-sulfonyl)-piperidin-4-yl]-acetamide] | 70%
O=C(NCC12CC3CC(CC(C3)C1)C2)C(O)c1ccc(C(F)(F)F)cc1 (centres unmarked) [Compound 121, N-Adamantan-1-ylmethyl-2-hydroxy-2-(4-trifluoromethyl-phenyl)-acetamide] | 91%
Cc1ccc(S(=O)(=O)N2CCC(NC(=O)C(O)CC3CCCCC3)CC2)cc1 (centres unmarked) [Compound 135, 3-Cyclohexyl-2-hydroxy-N-(1-tosylpiperidin-4-yl)propanamide] | 89%
O=C(O)CCCCCCCCCCCNC(=O)C(O)CCc1ccc(C(F)(F)F)cc1 (centres unmarked) [Compound 163, 12-(2-Hydroxy-4-(4-(trifluoromethyl)phenyl)butanamido)dodecanoicacid] | 89%
O=C(Nc1ccc(-n2ccnc2)cc1)C(=O)C12CC3CC(CC(C3)C1)C2 [Compound 21] | 93%
O=C(Nc1cccc(OCc2ccccc2)c1)C(=O)c1ccc(C(F)(F)F)cc1 [Compound 5, N-(3-Benzyloxy-phenyl)-2-oxo-2-(4-trifluoromethyl-phenyl)-acetamide] | 71%
O=C(NC1CCN(S(=O)(=O)c2ccc(Cl)cc2)CC1)C(O)CCC12CC3CC(CC(C3)C1)C2 (centres unmarked) [Compound 152, N-(1-(4-Chlorophenylsulfonyl)piperidin-4-yl)-4-adamantyl-2-hydroxybutanamide] | 98%

same assay, conditions: Concentration 50000 nM

% Inhibition | Compound
81% | O=C(Nc1ccc(OCc2ccccc2)cc1)C(O)CC12CC3CC(CC(C3)C1)C2 (centres unmarked) [Compound 117, 3-Adamantan-1-yl-N-(4-benzyloxy-phenyl)-2-hydroxy-propionamide]
96% | O=C(NC12CC3CC(CC(C3)C1)C2)C(=O)c1cccc(OCc2ccccc2)c1 [Compound 3, N-Adamantan-1-yl-2-(3-benzyloxy-phenyl)-2-oxo-acetamide]

The remaining lines, values behind:

Compound | % Inhibition
O=C(Nc1ccc(-n2ccnc2)cc1)C(O)C1CCCCC1 (centres unmarked) [Compound 112, 2-Cyclohexyl-2-hydroxy-N-(4-imidazol-1-yl-phenyl)-acetamide] | 80%
O=C(Nc1ccc(OCc2ccccc2)cc1)C(O)CC1CCCCC1 (centres unmarked) [Compound 132, N-(4-(Benzyloxy)phenyl)-3-cyclohexyl-2-hydroxypropanamide] | 65%
O=C(NCCc1ccc(OCc2ccccc2)cc1)C(O)Cc1ccc(C(F)(F)F)cc1 (centres unmarked) [Compound 144, N-(4-(Benzyloxy)phenethyl)-2-hydroxy-3-(4-(trifluoromethyl)phenyl)propanamide] | 66%
COC1CCC(NC(=O)C(O)c2ccc(C(F)(F)F)cc2)CC1 (centres unmarked) [Compound 104, 2-Hydroxy-N-(4-methoxy-cyclohexyl)-2-(4-trifluoromethyl-phenyl)-acetamide] | 79%
COC1CCC(NC(=O)C(=O)c2ccc(C(F)(F)F)cc2)CC1 (centres unmarked) [Compound 4, N-(4-Methoxy-cyclohexyl)-2-oxo-2-(4-trifluoromethyl-phenyl)-acetamide] | 87%
CCCC(=O)N1CCC(NC(=O)C(=O)c2ccc(C(F)(F)F)cc2)CC1 [Compound 14, N-(1-Butyryl-piperidin-4-yl)-2-oxo-2-(4-trifluoromethyl-phenyl)-acetamide] | 77%
O=C(Nc1ccc(-n2ccnc2)cc1)C(=O)C1CCCCC1 [Compound 11, 2-Cyclohexyl-N-(4-imidazol-1-yl-phenyl)-2-oxo-acetamide] | 80%
